Like-named read-outs stand apart in the source and are kept apart here.

These results are taken from article PMC5560435 (Journal of fluorine chemistry, 2017).

Data set [1] concerns MCF7-S human breast carcinoma. Conditions: read-out: IC50 MCF7-S (breast); 72 h drug exposure; cited from earlier work.
Data set [2] concerns NCI/ADR multidrug-resistant human ovarian carcinoma. The note with it: cited from earlier work; for R/S resistance factor: (IC50 NCI/ADR)/(IC50 MCF7-S); for IC50: read-out: IC50 NCI/ADR (ovarian), 72 h drug exposure.
Data set [3] has as its system CSC-enriched (CD133++) HCT-116 human colon cancer cell line. The note with it: cited from earlier work.
The subject of data set [4] is tubulin. The note with it: cited from earlier work.
The next data set relates to CYP 3A4. The note with it: CYP 3A4 in humans; cited from earlier work.
The test system of data set [5] is microtubules. The note with it: cited from earlier work.
Data set [6] concerns HT-29 human colon cancer cell line. The note with it: read-out: IC50 HT-29 (colon); 72 h drug exposure; cited from earlier work.
For data set [7], the system named is PANC-1 human pancreatic cancer cell line. The note with it: read-out: IC50 PANC-1 (pancreatic); 72 h drug exposure; cited from earlier work.
Data set [8] relates to microtubule protein (tubulin). The note with it: microtubule protein 1 mg/mL, 37 °C, Drug 10 μM; cited from earlier work.
Data set [9] deals with tubulin. The experiment in a line: Critical concentration of tubulin for microtubule assembly. Format: biochemical. Conditions: from Table 3.
For data set [10], the system named is microtubules. Kind of data set: Binding to microtubules, fluorescent ligand displacement method. The note with it: from Table 4.
The test system of data set [11] is CSC-enriched (CD133++) HCT-116 human colon cancer cell line. Kind of data set: Cytotoxicity against CSC-enriched HCT-116. It is filed as cell-based. Conditions: CSC-enriched HCT-116, from Table 2.

As for `CC(=O)O[C@@]12CO[C@@H]1C[C@H](O)[C@@]1(C)C(=O)[C@H](OC(=O)C3CC3)C3=C(C)[C@@H](OC(=O)[C@H](O)[C@H](C=C(F)F)NC(=O)OC(C)(C)C)C[C@@](O)([C@@H](OC(=O)c4cccc(N=[N+]=[N-])c4)[C@H]21)C3(C)C` [SB-T-12852-3], the IC50 in data set [1] is 0.092 nM; in data set [2], 0.45 nM. In [2], the R/S resistance factor is 4.9.
`CC(=O)O[C@@]12CO[C@@H]1C[C@H](O)[C@@]1(C)C(=O)[C@H](OC(=O)C3CC3)C3=C(C)[C@@H](OC(=O)[C@H](O)[C@H](C=C(F)F)NC(=O)OC(C)(C)C)C[C@@](O)([C@@H](OC(=O)c4cccc(F)c4)[C@H]21)C3(C)C` [SB-T-12852-2]: in data set [1], the IC50 is 0.071 nM. In data set [2], the R/S resistance factor was 24 and the IC50 was 1.72 nM.
On to `COC(=O)O[C@H]1C(=O)[C@@]2(C)C([C@H](OC(=O)c3cccc(OC)c3)[C@]3(O)C[C@H](OC(=O)[C@H](O)[C@H](C=C(F)F)NC(=O)OC(C)(C)C)C(C)=C1C3(C)C)[C@]1(OC(C)=O)CO[C@@H]1C[C@@H]2O` (some centres unmarked) [SB-T-12855-1], for which the IC50 in data set [1] is 0.078 nM. Besides, in data set [2], the R/S resistance factor is recorded as 6.4 and the IC50 was 0.5 nM.
Turning to `COc1cccc(C(=O)O[C@H]2[C@@H]3[C@]4(OC(C)=O)CO[C@@H]4C[C@H](O)[C@@]3(C)C(=O)[C@H](OC(=O)C3CC3)C3=C(C)[C@@H](OC(=O)[C@H](O)[C@H](C=C(F)F)NC(=O)OC(C)(C)C)C[C@]2(O)C3(C)C)c1` [SB-T-12852-1], in [1], the IC50 is 0.092 nM. In data set [2], the R/S resistance factor is listed as 5.2 and the IC50 was 0.48 nM.
Turning to `CC[C@@]1(O)C(=O)OCc2c1cc1n(c2=O)Cc2cc3c(CN(C)C)c(O)ccc3nc2-1` [topotecan], in data set [3], the IC50 was 451 ± 12 nM.
Take `N.N.[Cl][Pt][Cl]` [cisplatin]: in [3], the IC50 was 4540 nM.
As for `CC(=O)O[C@@]12CO[C@@H]1C[C@H](O)[C@@]1(C)C(=O)[C@H](OC(=O)C3CC3)C3=C(C)[C@@H](OC(=O)[C@H](O)[C@H](C=C(C)C)NC(=O)OC(C)(C)C)C[C@@](O)([C@@H](OC(=O)c4ccccc4)[C@H]21)C3(C)C` [SB-T-1214], the IC50 in data set [3] was 0.28 ± 0.1 nM. Further, the “Critical concentration of tubulin required for microtubule assembly” value with tubulin [4] was 0.9 ± 0.2 µM. For the same compound, the Primary metabolism result with CYP 3A4 was “hydroxylation primarily at the two allylic methyl groups of the 3′-isobutenyl group”. The entries for the “Binding constant with microtubules” value in the data set with microtubules [5] (26 °C) and in the data set with microtubules [5] (37 °C) were 12±2 x10^7 M^−1 and 7±1 x10^7 M^−1, respectively.
Consider `COC(=O)O[C@H]1C(=O)[C@@]2(C)C([C@H](OC(=O)c3cccc(N=[N+]=[N-])c3)[C@]3(O)C[C@H](OC(=O)[C@H](O)[C@H](C=C(F)F)NC(=O)OC(C)(C)C)C(C)=C1C3(C)C)[C@]1(OC(C)=O)CO[C@@H]1C[C@@H]2O` (some centres unmarked) [SB-T-12855-3], for which, in data set [1], the IC50 is 0.078 nM. In data set [2], the R/S resistance factor is listed as 5.3 and the IC50 is 0.4 nM.
On to `COc1cccc2c1C(=O)c1c(O)c3c(c(O)c1C2=O)C[C@@](O)(C(=O)CO)C[C@@H]3O[C@H]1C[C@H](N)[C@H](O)[C@H](C)O1` [doxorubicin], for which the IC50 in [3] is 78 ± 28.2 nM.
Regarding `CC(=O)O[C@@]12CO[C@@H]1C[C@H](O)[C@@]1(C)C(=O)[C@H](OC(=O)C3CC3)C3=C(C)[C@@H](OC(=O)[C@H](O)[C@H](C=C(F)F)NC(=O)OC(C)(C)C)C[C@@](O)([C@@H](OC(=O)c4ccccc4)[C@H]21)C3(C)C` [SB-T-12852], the IC50 was 0.85 nM in [6], 0.12 nM in data set [1], 5.85 nM in [7] and 6 nM in data set [2]. Also, the R/S resistance factor in [2] is 50.
In the case of `CN(Cc1cnc2nc(N)nc(N)c2n1)c1ccc(C(=O)N[C@@H](CCC(=O)O)C(=O)O)cc1` [methotrexate], the IC50 in data set [3] was 32.7 ± 11.2 nM.
Consider `CC(=O)O[C@@]12CO[C@@H]1C[C@H](O)[C@@]1(C)C(=O)[C@H](OC(=O)N(C)C)C3=C(C)[C@@H](OC(=O)[C@H](O)[C@H](C=C(C)C)NC(=O)OC(C)(C)C)C[C@@](O)([C@@H](OC(=O)c4ccccc4)C12)C3(C)C` (some centres unmarked) [SB-T-1216], for which, in data set [3], the IC50 was 0.83 ± 0.05 nM. For the same compound, the Primary metabolism entry in the data set on CYP 3A4 is listed as “hydroxylation primarily at the two allylic methyl groups of the 3′-isobutenyl group”.
For `CC(=O)O[C@H]1C(=O)[C@@]2(C)[C@H]([C@H](OC(=O)c3ccccc3)[C@]3(O)C[C@H](OC(=O)[C@H](O)[C@@H](NC(=O)c4ccccc4)c4ccccc4)C(C)=C1C3(C)C)[C@]1(OC(C)=O)CO[C@@H]1C[C@@H]2O` [paclitaxel, reference compound], the IC50 in [6] was 3.6 nM; in data set [3] it was 33.8 ± 3.33 nM; in data set [1], 1.2 nM; in data set [7] it was 25.7 nM; in [2], 300 nM. Also, the R/S resistance factor in data set [2] is given as 250.
`CC(=O)O[C@H]1C(=O)[C@@]2(C)C([C@H](OC(=O)c3ccccc3)[C@]3(O)C[C@H](OC(=O)[C@H](O)[C@H](C=C(F)F)NC(=O)OC(C)(C)C)C(C)=C1C3(C)C)[C@]1(OC(C)=O)CO[C@@H]1C[C@@H]2O` (some centres unmarked) [SB-T-12851]: the IC50 in data set [6] is 0.41 nM; in data set [1], 0.099 nM; in data set [7] it was 1.19 nM; in data set [2] it was 0.95 nM. Moreover, the “Rate of GTP-independent tubulin polymerization” value (shortened to “Rate”) in data set [8] is “much faster than paclitaxel”. In [2], the R/S resistance factor is recorded as 9.6.
For the compound `CC(=O)O[C@H]1C(=O)[C@@]2(C)C([C@H](OC(=O)c3cccc(N=[N+]=[N-])c3)[C@]3(O)C[C@H](OC(=O)[C@H](O)[C@H](C=C(F)F)NC(=O)OC(C)(C)C)C(C)=C1C3(C)C)[C@]1(OC(C)=O)CO[C@@H]1C[C@@H]2O` (some centres unmarked) [SB-T-12851-3], the IC50 in [1] was 0.092 nM. In data set [2], the R/S resistance factor is recorded as 3.7 and the IC50 is 0.34 nM.
Regarding `COC(=O)O[C@H]1C(=O)[C@@]2(C)C([C@H](OC(=O)c3cccc(Cl)c3)[C@]3(O)C[C@H](OC(=O)[C@H](O)[C@H](C=C(F)F)NC(=O)OC(C)(C)C)C(C)=C1C3(C)C)[C@]1(OC(C)=O)CO[C@@H]1C[C@@H]2O` (some centres unmarked) [SB-T-12855-4], the IC50 was 0.099 nM in data set [1] and 1.16 nM in [2]. Also, in data set [2], the R/S resistance factor is listed as 12.
With `CC(=O)O[C@@]12CO[C@@H]1C[C@H](O)[C@@]1(C)C(=O)[C@H](OC(=O)N(C)C)C3=C(C)[C@@H](OC(=O)[C@H](O)[C@H](C=C(F)F)NC(=O)OC(C)(C)C)C[C@@](O)([C@@H](OC(=O)c4ccccc4)C12)C3(C)C` (some centres unmarked) [SB-T-12854], the IC50 was 0.46 nM in data set [6]; 0.14 ± 0.05 nM in data set [3]; 0.13 nM in [1]; 1.58 nM in data set [7]; 4.3 nM in [2]. Moreover, in the data set with tubulin [9], the “Potency in inducing tubulin assembly relative to SB-T-1214” value is “three times higher potency than SB-T-1214”. In addition, in the data set with microtubules [10], the “times stronger binding to microtubules than paclitaxel” value is given as “ca. 10 times”. In the data set on tubulin [4], the “Critical concentration of tubulin required for microtubule assembly” value is 0.3 ± 0.1 µM. Further, the “Rate” value in data set [8] is “much faster than paclitaxel”. Besides, the “Binding constant with microtubules” value in the data set with microtubules [5] (26 °C) is listed as 15±3 x10^7 M^−1; with microtubules [5] (37 °C) it was 10±1 x10^7 M^−1. Further, the R/S resistance factor in [2] was 33. Also, the “times higher potency than conventional anticancer drugs” value in data set [11] is 230-33,000 times.
With `CCC(=O)O[C@H]1C(=O)[C@@]2(C)C([C@H](OC(=O)c3ccccc3)[C@]3(O)C[C@H](OC(=O)[C@H](O)[C@H](C=C(F)F)NC(=O)OC(C)(C)C)C(C)=C1C3(C)C)[C@]1(OC(C)=O)CO[C@@H]1C[C@@H]2O` (some centres unmarked) [SB-T-12853], the IC50 in data set [6] was 0.34 nM; in data set [1], 0.12 nM; in data set [7], 0.65 nM; in data set [2], 1.2 nM. In addition, the “Rate” value in data set [8] is “much faster than paclitaxel”. Moreover, the R/S resistance factor in data set [2] is 10.
